Assay results as given in article PMC8765437, “GSK3640254 Is a Novel HIV-1 Maturation Inhibitor with an Optimized Virology Profile” (Antimicrobial Agents and Chemotherapy, 2022).
Read-outs that look alike come from different tables or passages of the source.

Experiments:
Assay type in all cases: cell-based
HIV-1 laboratory strains = assay: Laboratory strains, reverse transcriptase activity in MT-2 cells
Experimental: (§1) Virus yields were measured in dose-response experiments by either luciferase activity in human T-cells (CEM-NKR-CCR5-Luc), extracellular reverse transcriptase activity in MT-2 cells (T-tropic viruses), or extracellular p24 antigen in PM1 cells (M-tropic viruses).
(§2) Multiple-cycle assays using recombinant viruses or clinical isolates were used to assess MI antiviral activity as described previously ([10]). pNLRepRlucP373S (the P373S change is in the Gag gene and converts an outlier polymorphism in the NL4-3 gene to the prevalent amino acid in the population) plasmids containing SDMs in Gag or gag/pr regions from clinical isolates were transfected into HEK 293T cells, and the supernatant containing recombinant virus was harvested after 4 to 5 days. Virus was used to infect MT-2 cells in the presence of a 3-fold serially diluted compound at a final dimethyl sulfoxide (DMSO) concentration of 1%. The inocula of the reporter viruses were determined based on the luciferase activity detected on day 4 postinfection. The MOI (ratio of infectious virions to target cells) of reporter-free laboratory strains and clinical isolates was 0.005, as derived from a tissue culture infectious dose study. Clinical isolates or reporter-free viruses were examined in the reporter CEM-NKR-CCR5-Luc cells or PBMCs at MOIs ranging from 0.005 to 0.01. Each infection started with a drug-free preincubation of the cell-virus mixtures, performed at 37°C and 5% CO2 for either 1 h at 2 times the final cell density (reporter viruses) or 1 h (reporter-free laboratory strains) or 3 h (clinical isolates) using cell pellets in 0.5 mL of medium. After preincubation, cell-virus mixtures were added to compound-containing 96-well plates for a final cell density of either 10,000 (MT-2 cells for reporter viruses), 20,000 (MT-2 and PM1 cells for reporter-free laboratory strains), 200,000 (PBMCs for clinical isolates), or 500,000 (CEM-NKR-CCR5-Luc for reporter-free laboratory strains) cells per well. The CEM-NKR-CCR5-Luc cell assay was performed in the presence of Polybrene (10 μg/mL). Virus growth was determined on days 4 to 5 postinfection for reporter variants or days 5 to 11 for the other viruses. The reporter viruses were detected by a luciferase assay according to manufacturer protocols (Brite-Glo luciferase kit [Promega] for CEM-NKR-CCR5-Luc cells and Dual-Luciferase Reporter 1000 assay system [Promega] for the other cells), and luminescence was detected on a Wallac Trilux. The growth of clinical isolates in PBMCs was quantitated by reverse transcriptase activity in a 96-well scintillation proximity assay (SPA). Twenty microliters of culture supernatants was mixed with 40 μL of reaction cocktail (62.5 mM Tris-HCl [pH 7.8], 100 mM KCl, 0.0625% NP-40, 2.5 mM dithiothreitol [DTT], 6.25 mM MgCl2, 1 mM EGTA, 6.25 μg/mL of poly rA, 2.5 μg/mL of streptavidin SPA beads prebound with biotinylated-dT12-18, and 1 μCi of [^3H]TTP). Mixtures were incubated at 37°C for ∼3 h and quenched with 100 μl of 0.25 M EDTA per well. Luminescence was detected on a Wallac Trilux programmed for tritium counting with SPA beads in opaque plates. The growth of the reporter-free laboratory M-tropic strains and clinical isolates was monitored by a p24 enzyme-linked immunosorbent assay (ELISA; PerkinElmer Life Sciences, Waltham, MA) performed on culture supernatants.
(§3) Maximal percent inhibition values were calculated as MPI = 100 – (mean signals at the 2 highest concentrations of compound/mean signal of 2 no-drug control wells) × 100.

HIV-1 M tropic strains = assay: M-tropic laboratory strains, extracellular p24 antigen in PM1 cells
Experimental: as §1
as §2, with “After preincubation, cell-virus mixtures were added to compound-containing 96-well plates for a final cell density of either 10,000 (MT-2 cells for reporter viruses), 20,000 (MT-2 and PM1 cells for reporter-free laboratory strains), 200,000 (PBMCs for clinical isolates), or 500,000 (CEM-NKR-CCR5-Luc for reporter-free laboratory strains) cells per well. The CEM-NKR-CCR5-Luc cell assay was performed in the presence of Polybrene (10 μg/mL).” left out, “Twenty microliters of culture supernatants was mixed with 40 μL of reaction cocktail (62.5 mM Tris-HCl [pH 7.8], 100 mM KCl, 0.0625% NP-40, 2.5 mM dithiothreitol [DTT], 6.25 mM MgCl2, 1 mM EGTA, 6.25 μg/mL of poly rA, 2.5 μg/mL of streptavidin SPA beads prebound with biotinylated-dT12-18, and 1 μCi of [^3H]TTP). Mixtures were incubated at 37°C for ∼3 h and quenched with 100 μl of 0.25 M EDTA per well.” left out
as §3

HIV-2 strains = assay: HIV-2 strains, luciferase activity in CEM-NKR-CCR5-Luc cells
Experimental: as §1
Multiple-cycle assays using recombinant viruses or clinical isolates were used to assess MI antiviral activity as described previously ([10]). pNLRepRlucP373S (the P373S change is in the Gag gene and converts an outlier polymorphism in the NL4-3 gene to the prevalent amino acid in the population) plasmids containing SDMs in Gag or gag/pr regions from clinical isolates were transfected into HEK 293T cells, and the supernatant containing recombinant virus was harvested after 4 to 5 days. Virus was used to infect MT-2 cells in the presence of a 3-fold serially diluted compound at a final dimethyl sulfoxide (DMSO) concentration of 1%. The inocula of the reporter viruses were determined based on the luciferase activity detected on day 4 postinfection. […] Virus growth was determined on days 4 to 5 postinfection for reporter variants or days 5 to 11 for the other viruses. The reporter viruses were detected by a luciferase assay according to manufacturer protocols (Brite-Glo luciferase kit [Promega] for CEM-NKR-CCR5-Luc cells and Dual-Luciferase Reporter 1000 assay system [Promega] for the other cells), and luminescence was detected on a Wallac Trilux. The growth of clinical isolates in PBMCs was quantitated by reverse transcriptase activity in a 96-well scintillation proximity assay (SPA). […] Luminescence was detected on a Wallac Trilux programmed for tritium counting with SPA beads in opaque plates. The growth of the reporter-free laboratory M-tropic strains and clinical isolates was monitored by a p24 enzyme-linked immunosorbent assay (ELISA; PerkinElmer Life Sciences, Waltham, MA) performed on culture supernatants.
as §3

HIV-1 clinical isolates = assay: Inhibition of clinical isolates in PBMCs; conditions: Human immunodeficiency virus 1, PBMC
Experimental: Human peripheral blood mononuclear cells (PBMCs) were infected with isolates, and virus yields were measured by determining extracellular p24 protein levels (Table 4). […] These isolates were also examined in the NLRepRlucP373S virus by replacement of the gag/pr genes with those from these clinical isolates.
Peripheral blood mononuclear cells (BioReclamation, Westbury, NY) were cultured at 37°C and 5% CO2 in RPMI 1640 medium with 20% fetal bovine serum (Gibco Laboratories), 100 units/mL of penicillin G, 100 units/mL of streptomycin (Gibco Laboratories), and 1 ng/mL of recombinant human interleukin-2 (Invitrogen, Carlsbad, CA). Peripheral blood mononuclear cells were stimulated with 2 μg/mL of phytohemagglutinin (Sigma-Aldrich, St. Louis, MO) for 2 days before infection with HIV-1 clinical isolates.
as §2

[1] = Human immunodeficiency virus 1, NL43, MT2, NL4-3, second value in cell, read-out: EC50 (converted)
[2] = Human immunodeficiency virus 1, PM1, Bal
[3] = Human immunodeficiency virus 1, PM1, JRFL
[4] = Human immunodeficiency virus 2, HIV-2 ROD, first value in cell
[5] = read-out: Mean EC50, subtype A 92UG037
[6] = read-out: Mean EC50, subtype A 93RW029
[7] = read-out: Mean EC50, subtype A 93RW034
[8] = read-out: Mean EC50, subtype AE 93TH023
[9] = read-out: Mean EC50, subtype AE 93TH053
[10] = read-out: Mean EC50, subtype AE CMU010
[11] = read-out: Mean EC50, subtype B 92BR003
[12] = read-out: Mean EC50, subtype B 92BR018
[13] = read-out: Mean EC50, subtype B 93BR009
[14] = read-out: Mean EC50, subtype B 93BR013
[15] = read-out: Mean EC50, subtype B 93BR017
[16] = read-out: Mean EC50, subtype C 93MW960
[17] = read-out: Mean EC50, subtype C 97ZA012
[18] = read-out: Mean EC50, subtype C 98BR004
[19] = read-out: Mean EC50, subtype C 10215-6
[20] = read-out: Mean EC50, subtype C 20706-3
[21] = read-out: Mean EC50, subtype C MJ4

Compound | EC50 (HIV-1 laboratory strains; [1]) [nM] | EC50 (HIV-1 M tropic strains; [2]) [nM] | EC50 (HIV-1 M tropic strains; [3]) [nM] | EC50 (HIV-2 strains; [4]) [nM] | EC50 (HIV-1 clinical isolates; [5]) [nM] | EC50 (HIV-1 clinical isolates; [6]) [nM] | EC50 (HIV-1 clinical isolates; [7]) [nM] | EC50 (HIV-1 clinical isolates; [8]) [nM] | EC50 (HIV-1 clinical isolates; [9]) [nM] | EC50 (HIV-1 clinical isolates; [10]) [nM] | EC50 (HIV-1 clinical isolates; [11]) [nM] | EC50 (HIV-1 clinical isolates; [12]) [nM] | EC50 (HIV-1 clinical isolates; [13]) [nM] | EC50 (HIV-1 clinical isolates; [14]) [nM] | EC50 (HIV-1 clinical isolates; [15]) [nM] | EC50 (HIV-1 clinical isolates; [16]) [nM] | EC50 (HIV-1 clinical isolates; [17]) [nM] | EC50 (HIV-1 clinical isolates; [18]) [nM] | EC50 (HIV-1 clinical isolates; [19]) [nM] | EC50 (HIV-1 clinical isolates; [20]) [nM] | other results
C=C(C)[C@@H]1CC[C@]2(NCCN3CCS(=O)(=O)CC3)CC[C@]3(C)[C@H](CC[C@@H]4[C@@]5(C)CC=C(c6ccc(C(=O)O)cc6)C(C)(C)[C@@H]5CC[C@]43C)[C@@H]12 [GSK’795, reference compound] | 19 | 3.7 | 13 | > 3000 | 2 | 6 | 2 | 533 | 18 | 35 | 4 | 145 | 2 | 9 | 10 | 1580 | 4 | 1 | 13 | 4 | EC50 (HIV-1 laboratory strains; Human immunodeficiency virus 1, HXB2, MT2, HXB2, footnote b: RT activity in MT-2 cells, read-out: GSK’795 EC50 ± SD): 9.3 ± 3.9 nM; EC50 (HIV-1 laboratory strains; Human immunodeficiency virus 1, IIIB, MT2, IIIB, footnote b: RT activity in MT-2 cells, read-out: GSK’795 EC50 ± SD): 2.5 ± 0.8 nM; EC50 (HIV-1 laboratory strains; Human immunodeficiency virus 1, MT2, LAI, footnote b: RT activity in MT-2 cells, read-out: GSK’795 EC50 ± SD): 2.4 ± 0.8 nM; EC50 (HIV-1 laboratory strains; Human immunodeficiency virus 1, MT2, MN, footnote b: RT activity in MT-2 cells, read-out: GSK’795 EC50 ± SD): 1 nM; EC50 (HIV-1 laboratory strains; Human immunodeficiency virus 1, MT2, RF, head footnote b: RT activity in MT-2 cells unless otherwise noted, read-out: GSK’795 EC50 ± SD): 6.9 ± 2.8 nM; EC50 (HIV-1 laboratory strains; Human immunodeficiency virus 1, NL43, MT2, NL4-3, first value in cell, footnote b: RT activity in MT-2 cells, read-out: GSK’795 EC50 ± SD): 3.9 ± 2.2 nM; EC50 (HIV-1 clinical isolates; [21]): 7 nM; EC50 (HIV-1 clinical isolates; read-out: mean EC50 toward clinical isolates, panel of HIV-1 clinical isolates, subtypes A, B, C, CRF01_AE): 138 nM
C=C(C)[C@@H]1CC[C@]2(NCCN3CCS(=O)(=O)CC3)CC[C@]3(C)[C@H](CC[C@@H]4[C@@]5(C)CC=C(C6=CC[C@@](CF)(C(=O)O)CC6)C(C)(C)[C@@H]5CC[C@]43C)[C@@H]12 [GSK’254] | 7.3 | 1.1 | 1.2 | > 3000 | 5 | 3 | 1 | 1 | 5 | 3 | 2 | 77 | 1 | 3 | 1 | 9 | 3 | 1 | 1 | 4 | EC50 (HIV-2 strains; Human immunodeficiency virus 2, HIV-2 287): 1240 nM; EC50 (HIV-1 clinical isolates; read-out: Mean EC50, subtype B 93BR008): 50 nM; EC50 (HIV-1 clinical isolates; read-out: Mean EC50, subtype B 93US143): 2 nM; EC50 (HIV-1 clinical isolates; [21]): 3 nM; EC50 (HIV-1 clinical isolates; read-out: mean EC50, subtype A/AE isolates): 3 nM; EC50 (HIV-1 clinical isolates; read-out: mean EC50, subtype B isolates): 19 nM; EC50 (HIV-1 clinical isolates; read-out: mean EC50, subtype C isolates): 3.5 nM
